Structures are written as SMILES. Bounds are passed on as bounds.

This note sets out measurements from BindingDB's records for doi:10.1021/jm020270n (Dainippon Pharmaceutical, 2003).

The target in the assay is D(2) dopamine receptor (Rattus norvegicus, UniProt P61169). The experiment in a line: Affinity towards Dopamine receptor D2 in rat striatum using [3H]spiperone as radioligand.
D(2) dopamine receptor, sequence (P61169 whole entry): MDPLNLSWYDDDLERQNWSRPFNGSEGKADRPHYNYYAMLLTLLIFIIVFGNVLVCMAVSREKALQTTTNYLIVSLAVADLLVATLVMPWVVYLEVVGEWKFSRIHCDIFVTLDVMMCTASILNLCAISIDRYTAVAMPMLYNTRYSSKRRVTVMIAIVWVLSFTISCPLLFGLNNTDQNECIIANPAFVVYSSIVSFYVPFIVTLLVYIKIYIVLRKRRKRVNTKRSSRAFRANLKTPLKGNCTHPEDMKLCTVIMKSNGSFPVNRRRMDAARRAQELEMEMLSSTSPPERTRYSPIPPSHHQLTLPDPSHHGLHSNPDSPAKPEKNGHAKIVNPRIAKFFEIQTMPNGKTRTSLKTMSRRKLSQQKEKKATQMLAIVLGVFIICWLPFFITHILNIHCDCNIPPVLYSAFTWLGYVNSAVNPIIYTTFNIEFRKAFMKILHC

`COc1cc(N)c(Cl)cc1C(=O)NC1CC2CCC(C1)N2C` (stereo unspecified) [4-amino-5-chloro-2-methoxy-N-(8-methyl-8-azabicyclo[3.2.1]octan-3-yl)benzamide] showed a Ki greater than 1000 nM.
